Structures are written as SMILES.

The results in this text go back to patent US12448388B2, “PRMT5 inhibitors and uses thereof” (Gilead Sciences, Inc., priority 2023, dated 2025).

This experiment deals with HCT116 MTAP-deleted cell lines. The experiment in a line: Cell viability assay (CellTiter-Glo, 7 days), HCT116 MTAP-deleted. The class given is cell-based. To be noted: Homo sapiens, HCT-116; cell viability assay, HCT116 MTAP-deleted; class symbols; read-out: CC50. Summed up:
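Each PRMT5 inhibitor was tested as a dose response alongside tool compounds on the same plate. Incubation ran 7 days at 37 °C under 5% CO2, after which CellTiter-Glo luminescence was recorded and CC50 calculated.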
(ATP-based viability assays read luminescence as a measure of living cells.)
Consider `CN(C(=O)c1cc2c(cc1F)nc(N)c1cncn12)C1COc2cc(Br)c(Cl)cc21` (stereo not shown) [Ff-609, 4-amino-N-(6-bromo-5-chloro-2,3-dihydrobenzofuran-3-yl)-7-fluoro-N-methylimidazo[1,5-a]quinoxaline-8-carboxamide], for which the CC50 (in general, the concentration that lowers cell viability or growth by half) was under 100 nM.

As for `CCN(C(=O)c1cc2c(cn1)nc(N)c1c(C)ncn12)[C@@H]1COc2cc(C(F)(F)F)ccc21` [Ff-610, (S)-4-amino-N-ethyl-3-methyl-N-(6-(trifluoromethyl)-2,3-dihydrobenzofuran-3-yl)imidazo[1,5-a]pyrido[3,4-e]pyrazine-8-carboxamide], the cytotoxic concentration (CC50) is under 100 nM.

Consider `CCN(C(=O)c1cc2c(cn1)nc(N)c1cnc(C)n12)[C@@H]1COc2cc(C(F)(F)F)ccc21` [Ff-613, (S)-4-amino-N-ethyl-1-methyl-N-(6-(trifluoromethyl)-2,3-dihydrobenzofuran-3-yl)imidazo[1,5-a]pyrido[3,4-e]pyrazine-8-carboxamide], for which the cytotoxic concentration (CC50) is under 100 nM.

Regarding `CN(C(=O)c1cc2c(cc1C1CC1)nc(N)c1cncn12)[C@@H]1COc2cc(C(F)(F)F)ccc21` [Ff-614, (S)-4-amino-7-cyclopropyl-N-methyl-N-(6-(trifluoromethyl)-2,3-dihydrobenzofuran-3-yl)imidazo[1,5-a]quinoxaline-8-carboxamide], the half-maximal cytotoxic concentration (CC50) was under 100 nM.

With `Nc1nc2cc(F)c(C(=O)N3CCC[C@@H]4Oc5cc(C(F)(F)F)ccc5[C@@H]43)cc2n2cnc(F)c12` [Ff-621, (4-amino-3,7-difluoroimidazo[1,5-a]quinoxalin-8-yl)((4aS,9bS)-7-(trifluoromethyl)-3,4,4a,9b-tetrahydrobenzofuro[3,2-b]pyridin-1(2H)-yl)methanone], the half-maximal cytotoxic concentration (CC50) lay within 100 to 1000 nM.

As to `Nc1nc2cc(F)c(C(=O)N3CCC[C@@H]4Oc5cc(C(F)(F)F)ccc5[C@@H]43)cc2n2c(F)ncc12` [Ff-622, (4-amino-1,7-difluoroimidazo[1,5-a]quinoxalin-8-yl)((4aS,9bS)-7-(trifluoromethyl)-3,4,4a,9b-tetrahydrobenzofuro[3,2-b]pyridin-1(2H)-yl)methanone], the CC50 is under 100 nM.

`Cc1ncc2c(N)nc3cc(F)c(C(=O)N4CC[C@H]5C[C@@H]4c4ccc(C(F)(F)F)nc4O5)cc3n12` [Ff-627, (4-amino-7-fluoro-1-methylimidazo[1,5-a]quinoxalin-8-yl)((2S,6R)-9-(trifluoromethyl)-3,4-dihydro-2H-2,6-methanopyrido[2,3-b][1,5]oxazocin-5(6H)-yl)methanone]: the CC50 was under 100 nM.

With `Cc1ncc2c(N)nc3cc(F)c(C(=O)N4C[C@@H](C)O[C@@H]5Cc6cc(C(F)(F)F)ccc6[C@@H]54)cc3n12` [Ff-629, (4-amino-7-fluoro-1-methylimidazo[1,5-a]quinoxalin-8-yl)((2R,4aS,9aR)-2-methyl-7-(trifluoromethyl)-2,3,9,9a-tetrahydroindeno[2,1-b][1,4]oxazin-4(4aH)-yl)methanone], the CC50 was under 100 nM.

Consider `C[C@@H]1CN(C(=O)c2ccc3nc(N)c4cncn4c3c2)[C@H]2c3ccc(C(F)(F)F)cc3C[C@H]2O1` [Ff-630, (4-aminoimidazo[1,5-a]quinoxalin-8-yl)((2R,4aS,9aR)-2-methyl-7-(trifluoromethyl)-2,3,9,9a-tetrahydroindeno[2,1-b][1,4]oxazin-4(4aH)-yl)methanone], for which the CC50 is under 100 nM.

Consider `Cc1ncc2c(N)nc3ccc(C(=O)N4C[C@@H](C)O[C@@H]5Cc6cc(C(F)(F)F)ccc6[C@@H]54)cc3n12` [Ff-631, (4-amino-1-methylimidazo[1,5-a]quinoxalin-8-yl)((2R,4aS,9aR)-2-methyl-7-(trifluoromethyl)-2,3,9,9a-tetrahydroindeno[2,1-b][1,4]oxazin-4(4aH)-yl)methanone], for which the CC50 lay in the range of 100 to 1000 nM.

For `Cc1ncn2c1c(N)nc1cnc(C(=O)N3CC[C@H]4C[C@@H]3c3cc(F)c(C(F)(F)F)cc3O4)cc12` [Ff-635, (4-amino-3-methylimidazo[1,5-a]pyrido[3,4-e]pyrazin-8-yl)((2S,6R)-8-fluoro-9-(trifluoromethyl)-3,4-dihydro-2H-2,6-methanobenzo[b][1,5]oxazocin-5(6H)-yl)methanone], the CC50 is under 100 nM.

On to `Nc1nc2cc(F)c(C(=O)N3CC[C@H]4C[C@@H]3c3cc(F)c(C(F)(F)F)cc3O4)cc2n2cncc12` [Ff-636, (4-amino-7-fluoroimidazo[1,5-a]quinoxalin-8-yl)((2S,6R)-8-fluoro-9-(trifluoromethyl)-3,4-dihydro-2H-2,6-methanobenzo[b][1,5]oxazocin-5(6H)-yl)methanone], for which the CC50 is under 100 nM.

As for `CN(C(=O)c1cc2c(cn1)nc(N)c1cncn12)[C@@H]1COc2cc(C34CC(C(F)(F)F)(C3)C4)ccc21` [Ff-642, (S)-4-amino-N-methyl-N-(6-(3-(trifluoromethyl)bicyclo[1.1.1]pentan-1-yl)-2,3-dihydrobenzofuran-3-yl)imidazo[1,5-a]pyrido[3,4-e]pyrazine-8-carboxamide], the CC50 fell in the range of 100 to 1000 nM.

For `Nc1nc2ccc(C(=O)N3C[C@@H](F)C[C@@H]4Oc5cc(C(F)(F)F)ccc5[C@@H]43)cc2n2cncc12` [Ff-649, (4-aminoimidazo[1,5-a]quinoxalin-8-yl)((3S,4aS,9bS)-3-fluoro-7-(trifluoromethyl)-3,4,4a,9b-tetrahydrobenzofuro[3,2-b]pyridin-1(2H)-yl)methanone], the CC50 is under 100 nM.

For `Cc1ncc2c(N)nc3cc(F)c(C(=O)N4CCC[C@@H]5Oc6c(ccc(C(F)(F)F)c6F)[C@@H]54)cc3n12` [Ff-651, (4-amino-7-fluoro-1-methylimidazo[1,5-a]quinoxalin-8-yl)((4aS,9bS)-6-fluoro-7-(trifluoromethyl)-3,4,4a,9b-tetrahydrobenzofuro[3,2-b]pyridin-1(2H)-yl)methanone], the CC50 was under 100 nM.

In the case of `CN(C(=O)c1cc2c(cc1F)nc(N)c1cncn12)[C@@H]1COc2cc(S(F)(F)(F)(F)F)ccc21` [Ff-652, (S)-4-amino-7-fluoro-N-methyl-N-(6-(pentafluoro-16-sulfaneyl)-2,3-dihydrobenzofuran-3-yl)imidazo[1,5-a]quinoxaline-8-carboxamide], the CC50 was under 100 nM.

For the molecule `CN(C(=O)c1cc2c(cc1F)nc(N)c1cncn12)[C@@H]1COc2cc(C(F)F)c(Cl)cc21` [Ff-653, (S)-4-amino-N-(5-chloro-6-(difluoromethyl)-2,3-dihydrobenzofuran-3-yl)-7-fluoro-N-methylimidazo[1,5-a]quinoxaline-8-carboxamide], the CC50 is under 100 nM.

In the case of `C[C@H]1C[C@@H](N(C)C(=O)c2cc3c(cc2F)nc(N)c2cncn23)c2ccc(C(F)(F)F)cc21` [Ff-654, 4-amino-7-fluoro-N-methyl-N-((1R,3S)-3-methyl-5-(trifluoromethyl)-2,3-dihydro-1H-inden-1-yl)imidazo[1,5-a]quinoxaline-8-carboxamide], the cytotoxic concentration (CC50) is under 100 nM.

Take `Nc1nc2cc(F)c(C(=O)N3CCC[C@@H]4Oc5cc(-c6cnn(C(F)(F)F)c6)ccc5[C@@H]43)cc2n2cncc12` [Ff-655, (4-amino-7-fluoroimidazo[1,5-a]quinoxalin-8-yl)((4aS,9bS)-7-(1-(trifluoromethyl)-1H-pyrazol-4-yl)-3,4,4a,9b-tetrahydrobenzofuro[3,2-b]pyridin-1(2H)-yl)methanone]: the CC50 is under 100 nM.
